In patent US20230011571A1, “SMALL MOLECULE FURIN INHIBITORS FOR TREATING INFECTIOUS DISEASES” (BP Asset V, Inc., priority 2019, published 2023):

Key:
Type in all cases: cell-based
dengue virus (DENV) = assay: microbe, parasite or virus in culture; conditions: Dengue virus, Vero, 120 h, read-out: Percent viral inhibition DENY
Marburg virus (MARV) = assay: organism not typed; conditions: Vero, 72 h, read-out: Percent viral inhibition MARV
[1] = system: Chikungunya virus (CHIKV); assay: microbe, parasite or virus in culture; conditions: Chikungunya virus, Vero, 48 h, read-out: Percent viral inhibition CHKV

| SMILES | inhibition at 1 µM (dengue virus (DENV)) [%] | inhibition at 1 µM (Marburg virus (MARV)) [%] | inhibition at 1 µM [1] [%] |
| --- | --- | --- | --- |
| CC(=O)NCC1CCN(Cc2cc(Oc3ccc(N4CCN(CC5(CO)CC5)CC4)nc3)nc(-c3cc(Cl)cc(Cl)c3)c2)CC1 [Example 34, N-((1-((2-(3,5-dichlorophenyl)-6-((6-(4-((1-(hydroxymethyl)cyclopropyl)methyl)piperazin-1-yl)pyridin-3-yl)oxy)pyridin-4-yl)methyl)piperidin-4-yl)methyl)acetamide] | 46.8 | 30.3 | 1.42 |
| CCNC(=O)CC1CCN(Cc2cc(Oc3ccc(N4CCN(CCCS(C)(=O)=O)CC4)nc3)nc(-c3cc(Cl)cc(Cl)c3)c2)CC1 [Example 36, 2-(1-((2-(3,5-dichlorophenyl)-6-((6-(4-(3-(methylsulfonyl)propyl)piperazin-1-yl)pyridin-3-yl)oxy)pyridin-4-yl)methyl)piperidin-4-yl)-N-ethylacetamide] | 38 | 52.5 | 5.78 |
| CNCc1cc(Oc2cnc(N3CCN(CCCS(C)(=O)=O)CC3)nc2)nc(-c2cc(Cl)cc(Cl)c2)c1 [Example 37, 1-(2-(3,5-dichlorophenyl)-6-((2-(4-(3-(methylsulfonyl)propyl)piperazin-1-yl)pyrimidin-5-yl)oxy)pyridin-4-yl)-N-methylmethanamine] | 100 | 56.6 | 32.9 |
| NS(=O)(=O)CC1CCN(Cc2cc(Oc3ccc(N4CCN(CCC(=O)O)CC4)nc3)nc(-c3cc(Cl)cc(Cl)c3)c2)CC1 [Example 38, 3-(4-(5-((6-(3,5-dichlorophenyl)-4-((4-(sulfamoylmethyl)piperidin-1-yl)methyl)pyridin-2-yl)oxy)pyridin-2-yl)piperazin-1-yl)propanoic acid] | 14.2 | 50 | 39.1 |
| CS(=O)(=O)CC1CCN(Cc2cc(Oc3ccc(N4CCN(CCC(=O)O)CC4)nc3)nc(-c3cc(Cl)cc(Cl)c3)c2)CC1 [Example 39, 3-(4-(5-((6-(3,5-dichlorophenyl)-4-((4-((methylsulfonyl)methyl)piperidin-1-yl)methyl)pyridin-2-yl)oxy)pyridin-2-yl)piperazin-1-yl)propanoic acid] | 54.7 | 60.1 | 23.7 |
| CNC(=O)NCC1CCN(Cc2cc(Oc3ccc(N4CCN(CCO)CC4)nc3)nc(-c3cc(Cl)cc(Cl)c3)c2)CC1 [Example 40, 1-((1-((2-(3,5-dichlorophenyl)-6-((6-(4-(2-hydroxyethyl)piperazin-1-yl)pyridin-3-yl)oxy)pyridin-4-yl)methyl)piperidin-4-yl)methyl)-3-methylurea] | 0 | 0 | 3.24 |
| CNC(=O)NCC1CCN(Cc2cc(Oc3ccc(N4CCN(CCC(=O)O)CC4)nc3)nc(-c3cc(Cl)cc(Cl)c3)c2)CC1 [Example 41, 3-(4-(5-((6-(3,5-dichlorophenyl)-4-((4-((3-methylureido)methyl)piperidin-1-yl)methyl)pyridin-2-yl)oxy)pyridin-2-yl)piperazin-1-yl)propanoic acid] | 68.7 | 43 | 30.1 |
| CC(=O)NCC1CCN(Cc2cc(Oc3ccc(N)cc3)cc(-c3cc(Cl)cc(Cl)c3)c2)CC1 [Example 42, N-((1-((5-(4-aminophenoxy)-3′,5′-dichloro-[1,1′-biphenyl]-3-yl)methyl)piperidin-4-yl)methyl)acetamide] | 24 | 0 | 7.42 |
| CS(=O)(=O)NCC1CCN(Cc2cc(Oc3ccc(N4CCN(CCC(=O)O)CC4)nc3)nc(-c3cc(Cl)cc(Cl)c3)c2)CC1 [Example 44, 3-(4-(5-((6-(3,5-dichlorophenyl)-4-((4-(methylsulfonamidomethyl)piperidin-1-yl)methyl)pyridin-2-yl)oxy)pyridin-2-yl)piperazin-1-yl)propanoic acid] | 69 | 49 | 35.5 |
| CC(=O)NCC1CCN(Cc2cc(Oc3ccc(N)cn3)cc(-c3cc(Cl)cc(Cl)c3)c2)CC1 [Example 45, N-((1-((5-((5-aminopyridin-2-yl)oxy)-3′,5′-dichloro-[1,1′-biphenyl]-3-yl)methyl)piperidin-4-yl)methyl)acetamide] | 0 | 18.4 | 0 |
| CNC(=O)NCC1CCN(Cc2cc(Oc3cnc(N4CCN(CCCS(N)(=O)=O)CC4)nc3)nc(-c3cc(Cl)cc(Cl)c3)c2)CC1 [Example 48, 3-(4-(5-((6-(3,5-dichlorophenyl)-4-((4-((3-methylureido)methyl)piperidin-1-yl)methyl)pyridin-2-yl)oxy)pyrimidin-2-yl)piperazin-1-yl)propane-1-sulfonamide] | 26 | 15.7 | 15.2 |
| COC(=O)NCC1(F)CCN(Cc2cc(Oc3cnc(N4CCN(CCC(=O)O)CC4)nc3)nc(-c3cc(Cl)cc(Cl)c3)c2)CC1 [Example 51, 3-(4-(5-((6-(3,5-dichlorophenyl)-4-((4-fluoro-4-(((methoxycarbonyl)amino)methyl)piperidin-1-yl)methyl)pyridin-2-yl)oxy)pyrimidin-2-yl)piperazin-1-yl)propanoic acid] | 56.7 | 43.6 | 21.1 |
| CN1CCN(c2ncc(Oc3cc(CN4CCC(CCO)CC4)cc(-c4cc(Cl)cc(Cl)c4)n3)cn2)CC1 [Example 52, 2-(1-((2-(3,5-dichlorophenyl)-6-((2-(4-methylpiperazin-1-yl)pyrimidin-5-yl)oxy)pyridin-4-yl)methyl)piperidin-4-yl)ethanol] | 45.6 | 29.9 | 26.3 |
| CN1CCN(c2ncc(Oc3cc(CN4CCC(OCC(=O)O)CC4)cc(-c4cc(Cl)cc(Cl)c4)n3)cn2)CC1 [Example 53, 2-((1-((2-(3,5-dichlorophenyl)-6-((2-(4-methylpiperazin-1-yl)pyrimidin-5-yl)oxy)pyridin-4-yl)methyl)piperidin-4-yl)oxy)acetic acid] | 42.5 | 53.5 | 30 |
| NC(=O)OCCN1CCN(Cc2cc(Oc3cnc(N4CCN(CCC(=O)O)CC4)nc3)nc(-c3cc(Cl)cc(Cl)c3)c2)CC1 [Example 54, 3-(4-(5-((4-((4-(2-(carbamoyloxy)ethyl)piperazin-1-yl)methyl)-6-(3,5-dichlorophenyl)pyridin-2-yl)oxy)pyrimidin-2-yl)piperazin-1-yl)propanoic acid] | 70.5 | 62.7 | 36.8 |
| NC(=O)OCCN1CCN(Cc2cc(Oc3ccc(N4CCN(CCC(=O)O)CC4)nc3)nc(-c3cc(Cl)cc(Cl)c3)c2)CC1 [Example 55, 3-(4-(5-((4-((4-(2-(carbamoyloxy)ethyl)piperazin-1-yl)methyl)-6-(3,5-dichlorophenyl)pyridin-2-yl)oxy)pyridin-2-yl)piperazin-1-yl)propanoic acid] | 3.58 | 40.2 | 16.8 |
| COC(=O)NCC1CCN(Cc2cc(Oc3cnc(N4CC5CCC(C4)N5CCC(=O)O)nc3)nc(-c3cc(Cl)cc(Cl)c3)c2)CC1 [Example 56, 3-(3-(5-((6-(3,5-dichlorophenyl)-4-((4-(((methoxycarbonyl)amino)methyl)piperidin-1-yl)methyl)pyridin-2-yl)oxy)pyrimidin-2-yl)-3,8-diazabicyclo[3.2.1]octan-8-yl) propanoic acid] | 57.1 | 60.9 | 31.3 |
| CC(CCN1CCN(c2ncc(Oc3cc(CN4CCC(CCO)CC4)cc(-c4cc(Cl)cc(Cl)c4)n3)cn2)CC1)C(=O)O (stereo not drawn) [Example 57, 4-(4-(5-((6-(3,5-dichlorophenyl)-4-((4-(2-hydroxyethyl)piperidin-1-yl)methyl)pyridin-2-yl)oxy)pyrimidin-2-yl)piperazin-1-yl)-2-methylbutanoic acid] | 37.6 | 54.4 | 21.1 |
| CCC(=O)NCC1CCN(Cc2cc(Oc3cnc(N4CCN(CCC(C)C(=O)O)CC4)nc3)nc(-c3cc(Cl)cc(Cl)c3)c2)CC1 (stereo not drawn) [Example 59, 4-(4-(5-((6-(3,5-dichlorophenyl)-4-((4-(propionamidomethyl)piperidin-1-yl)methyl)pyridin-2-yl)oxy)pyrimidin-2-yl)piperazin-1-yl)-2-methylbutanoic acid] | 53.7 | 57.5 | 35.1 |
| CC(O)CCN1CCN(c2ncc(Oc3cc(CN4CCC(F)CC4)cc(-c4cc(Cl)cc(Cl)c4)n3)cn2)CC1 (stereo not drawn) [Example 60, 4-(4-(5-((6-(3,5-dichlorophenyl)-4-((4-fluoropiperidin-1-yl)methyl)pyridin-2-yl)oxy)pyrimidin-2-yl)piperazin-1-yl)butan-2-ol] | 79 | 53.6 | 38.8 |
| COC(=O)NCC1CCN(Cc2cc(Oc3cnc(N4CCN(CCC(=O)O)CC4)nc3)nc(-c3cc(Cl)cc(Cl)c3)c2)CC1 [Example 62, 3-(4-(5-((6-(3,5-dichlorophenyl)-4-((4-(((methoxycarbonyl)amino)methyl)piperidin-1-yl)methyl)pyridin-2-yl)oxy)pyrimidin-2-yl)piperazin-1-yl)propanoic acid] | 19.1 | 19.9 | 35.2 |
| COC(=O)NCC1CCN(Cc2cc(Oc3cnc(N4CCN(C)CC4)nc3)nc(-c3cc(Cl)cc(Cl)c3)c2)CC1 [Example 63, methyl((1-((2-(3,5-dichlorophenyl)-6-((2-(4-methylpiperazin-1-yl)pyrimidin-5-yl)oxy)pyridin-4-yl)methyl)piperidin-4-yl)methyl)carbamate] | 2.35 | 14.7 | 0 |
